Experimental data from PubChem BioAssay (NCI).
Several values for one entry are separate records, joined by “and”; a condition that tells them apart may be missing. Equal values may be shown once.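 Five compound concentrations were applied to cells in 96-well plates for 48 hours; endpoints were derived by simple linear interpolation of the resulting dose-response curve. Abbreviation: GI50, concentration required for 50% inhibition of growth. TGI is the concentration that stops growth completely.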

What was measured:
Assay in all cases: growth of human tumour cells (NCI), 48 h
ACHN renal = system: ACHN renal
HCC-2998 colon = system: HCC-2998 colon
MALME-3M melanoma = system: MALME-3M melanoma
MDA-MB-435 = system: MDA-MB-435
MOLT-4 leukemia = system: MOLT-4 leukemia
SF-539 CNS = system: SF-539 CNS
SK-MEL-28 melanoma = system: SK-MEL-28 melanoma
SK-OV-3 ovarian = system: SK-OV-3 ovarian
SNB-75 CNS = system: SNB-75 CNS
T-47D breast = system: T-47D breast

| Structure (SMILES) | GI50 (ACHN renal) | TGI (ACHN renal) | GI50 (HCC-2998 colon) | TGI (HCC-2998 colon) | GI50 (MALME-3M melanoma) | TGI (MALME-3M melanoma) | GI50 (MDA-MB-435) | TGI (MDA-MB-435) | GI50 (MOLT-4 leukemia) | TGI (MOLT-4 leukemia) | GI50 (SF-539 CNS) | TGI (SF-539 CNS) | GI50 (SK-MEL-28 melanoma) | TGI (SK-MEL-28 melanoma) | GI50 (SK-OV-3 ovarian) | TGI (SK-OV-3 ovarian) | GI50 (SNB-75 CNS) | TGI (SNB-75 CNS) | GI50 (T-47D breast) | TGI (T-47D breast) |
| --- | --- | --- | --- | --- | --- | --- | --- | --- | --- | --- | --- | --- | --- | --- | --- | --- | --- | --- | --- | --- |
| C=C1C(=O)O[C@H]2[C@H]1CC/C(COC(=O)NCc1c[nH]c3ccc(OC)cc13)=C\CC[C@@]1(C)O[C@@H]21 | 0.729 µM | 2.01 µM | 5.77 µM | 19 µM | 2.14 µM | 4.24 µM | 1.27 µM | 2.87 µM | 1.32 µM | 4.74 µM | 1.53 µM | 3.02 µM | 1.52 µM | 3.34 µM | 12.7 µM | 25.2 µM | 11 µM | 23.5 µM | 1.89 µM | 4.38 µM |
| COc1ccccc1/C=C1\CCC(CN(C)C)C1=O (stereo not given) | – | 15.2 µM | – | 14.2 µM | – | 16.2 µM | – | 25.2 µM | – | 17.5 µM | – | 27.2 µM | – | 12.2 µM | – | 33.7 µM | – | 17.8 µM | – | 28.8 µM |
| Cc1cc(N2CCOCC2)nc(N(CCNc2ccnc3cc(Cl)ccc23)Cc2ccco2)n1 | 3.46 µM | 15.3 µM | 6.12 µM | 44.8 µM | 3.41 µM | 10.3 µM | 3.27 µM | 15.2 µM | 3.41 µM | > 100 µM | 1.95 µM | 4.41 µM | 2.69 µM | 7.67 µM | 7.01 µM | 22 µM | 2.59 µM | 7.77 µM | 2.13 µM | 4.92 µM |
| COc1cccc(C2=NN(C(C)=O)C(c3cc(OC)c(OC)c(OC)c3)C2)c1 (stereo not given) | 16 µM | > 100 µM | 2.26 µM | 16 µM | 2.47 µM | > 100 µM | 0.224 µM | 0.782 µM | 3.67 µM | > 100 µM | 2.81 µM | > 25.7 µM | > 22.8 µM | > 100 µM | 3.04 µM | > 47.7 µM | 1.73 µM | > 100 µM | 4.49 µM | > 100 µM |
| O=Cc1ncc(-c2ccc(C(F)(F)F)cc2)c(NC2CCCCCC2)n1 | > 10 µM | > 10 µM | > 10 µM | > 10 µM | > 10 µM | > 10 µM | > 10 µM | > 10 µM | > 10 µM | > 10 µM | > 10 µM | > 10 µM | > 10 µM | > 10 µM | > 10 µM | > 10 µM | > 10 µM | > 10 µM | > 10 µM | > 10 µM |
| Oc1ccc(Cl)cc1Cc1cc(Cl)cc(Cc2cc(Cl)ccc2O)c1O | – | 7.64 µM | – | 2.79 µM | – | 5.56 µM | – | 9.3 µM | – | 8.67 µM | – | 4.37 µM | – | 14.6 µM | – | 8.5 µM | – | 10.3 µM | – | 7.56 µM |
| O=[n+]1cnn([O-])c2ccccc21 | – | 36.9 µM | – | > 100 µM | – | 47.6 µM | – | > 100 µM | – | > 100 µM | – | 55.7 µM | – | > 100 µM | – | > 100 µM | – | > 100 µM | – | 29.7 µM |
| CN(C)c1cc2c(Nc3ccc4nc(Cc5ccccc5)[nH]c4c3)ncnc2cn1 | 11.8 µM | > 25 µM | > 25 µM | > 25 µM | > 16.3 µM | > 25 µM | > 20.9 µM | > 25 µM | > 25 µM | > 25 µM | 14.4 µM | > 25 µM | > 12.4 µM | > 20 µM | 1.85 µM | > 25 µM | > 13.9 µM | > 25 µM | > 16.4 µM | > 25 µM |
| S=C(Nc1ccc(-c2nc3ccccc3s2)cc1)Nc1ccccn1 | 26.3 µM | > 70.8 µM | 21.9 µM | 60.2 µM | 28.6 µM | 73.9 µM | 28.4 µM | 97.2 µM | 18.8 µM | > 86.7 µM | 37.8 µM | > 100 µM | 35.3 µM | > 95.4 µM | 59.7 µM | > 100 µM | 12 µM | > 51.2 µM | 23.6 µM | > 95.5 µM |
| COc1c(Nc2ncc(Cl)c(N[C@@H]3[C@H]4C=CC(C4)[C@@H]3C(N)=O)n2)ccc2c1CC[C@@H](N1CCOCC1)CC2 | 2.66 µM | 24.3 µM | 9.61 µM | 23.6 µM | 1.7 µM | 14.6 µM | 2.72 µM | 15.7 µM | 4.05 µM | 35.5 µM | 2.3 µM | 8.01 µM | 3.25 µM | 17.7 µM | 3.43 µM | 15.2 µM | 1.59 µM | 5.89 µM | 7.78 µM | 25.5 µM |
| CCNC(=O)Nc1ccc(-c2nc3c(c(N4CCOC[C@@H]4C)n2)CCN(C2COC2)C3)cc1 | 0.285 µM and 0.395 µM | > 56.2 µM | 0.748 µM and 0.398 µM | > 100 µM | 0.0743 µM and 0.0825 µM | 1.6 µM and 1.2 µM | 0.3 µM and 0.318 µM | > 25.6 µM | 0.521 µM and 0.911 µM | > 100 µM | 0.247 µM and 0.336 µM | 1.85 µM and 3.53 µM | 0.199 µM and 0.157 µM | 5.39 µM and 2.24 µM | 0.148 µM and 0.131 µM | 1.16 µM and 0.956 µM | 0.104 µM and 0.0737 µM | 1.13 µM and 1.1 µM | 0.0498 µM and 0.0316 µM | 0.591 µM and 0.381 µM |
| NC(=O)Cc1ccccc1Oc1nccc(-c2c(-c3ccc(F)cc3)ncn2C2CCNCC2)n1 | > 25 µM | > 25 µM | > 25 µM | > 25 µM | > 25 µM | > 25 µM | > 25 µM | > 25 µM | > 25 µM | > 25 µM | > 25 µM | > 25 µM | > 25 µM | > 25 µM | > 25 µM | > 25 µM | > 19.1 µM | > 25 µM | > 25 µM | > 25 µM |
| Cc1oncc1C(=O)Nc1ccc(C(F)(F)F)cc1 | 41.7 µM | > 100 µM | 64.5 µM | > 100 µM | 20.5 µM | > 100 µM | 46.9 µM | > 100 µM | 36.4 µM | > 100 µM | 60.3 µM | > 100 µM | 56.7 µM | > 100 µM | > 100 µM | > 100 µM | 23.5 µM | > 100 µM | 94 µM | > 100 µM |
| COC(=O)C1=C2C3=C(C(=O)c4ccccc4C3=O)N(Cc3ccccc3)C2(OC(C)=O)C=CC1=O (stereo not given) | 8.4 µM | 26.4 µM | 4.67 µM | 47.4 µM | 10.8 µM | 26.5 µM | 9.52 µM | 25.3 µM | 0.846 µM | > 100 µM | 5.9 µM | 23.1 µM | 27.8 µM | 66.7 µM | 27.6 µM | > 100 µM | 40.3 µM | > 100 µM | 66.4 µM | > 100 µM |
| COc1cc2c3c(n(CCCN=[N+]=[N-])c(=O)c2cc1OC)-c1ccc(N)cc1C3=O | 0.102 µM | 1.02 µM | 0.258 µM | 0.856 µM | 0.804 µM | 4.63 µM | 0.479 µM | 1.65 µM | 0.0731 µM | 1.46 µM | 0.0919 µM | 0.325 µM | 0.613 µM | 2.78 µM | 0.277 µM | 0.716 µM | 0.126 µM | 0.69 µM | 0.0988 µM | 0.76 µM |
| Clc1cccc(Cn2cc(Cc3cn(Cc4cccc(Cl)c4)c4ccccc34)c3ccccc32)c1 | > 100 µM | > 100 µM | > 100 µM | > 100 µM | > 100 µM | > 100 µM | > 100 µM | > 100 µM | > 100 µM | > 100 µM | > 100 µM | > 100 µM | > 100 µM | > 100 µM | > 100 µM | > 100 µM | > 100 µM | > 100 µM | > 100 µM | > 100 µM |
| O=C(Nc1cccnc1)c1cccs1 | 8.98 µM | > 100 µM | 5.56 µM | > 100 µM | > 100 µM | > 100 µM | 2.43 µM | > 100 µM | 3.19 µM | > 100 µM | 4.51 µM | > 100 µM | 0.677 µM | > 100 µM | 5.57 µM | > 100 µM | 4.77 µM | > 100 µM | > 100 µM | > 100 µM |
